Test results from patent US9359451B2, “Methods and compositions for treating trauma-hemorrhage using estrogen and derivatives thereof” (THE UAB RESEARCH FOUNDATION, priority 2012, dated 2016).
“Also recorded” adds a separate entry of the source.

Legend:
myeloperoxidase (MPO) = assay: Spinal cord injury: neutrophil infiltration, MPO activity and MPO staining; type: in vivo, mouse; conditions: 24 h after SCI; ICI 182,780: co-administered with 17β-estradiol
Method: Mice were anaesthetized using chloral hydrate (400 mg/kg body weight) (Genovese 2006). A longitudinal incision was made on the midline of the back, exposing the paravertebral muscles. These muscles were dissected away exposing T5-T8 vertebrae. The spinal cord was exposed via a four-level T6-T7 laminectomy and SCI was produced by extradural compression using an aneurysm clip with a closing force of 24 g. Following surgery, 1 ml of saline was administered subcutaneously in order to replace the blood volume lost during surgery. During the surgery and recovery from anesthesia, the mice were placed on a warm heating pad and covered with a warm towel. […] Food and water were provided to the mice ad libitum. During this time period, the animals' bladders were manually voided twice a day until the mice were able to regain normal bladder function. In all injured groups, the spinal cord was compressed for 1 min. Sham-injured animals were only subjected to laminectomy. […] In the experiments regarding the motor score, the animals from all the experimental groups were observed and treated daily for 9 days after SCI. At different time points (see FIG. 30), the mice (n=10 from each group for each of the 3 time points) were sacrificed in order to evaluate the various parameters as described below. […] After deparaffinization, endogenous peroxidase was quenched with 0.3% (v/v) hydrogen peroxide in 60% (v/v) methanol for 30 min. […] Non-specific adsorption was minimized by incubating the section in 2% (v/v) normal goat serum in PBS for 20 min. Endogenous biotin or avidin binding sites were blocked by sequential incubation for 15 min with biotin and avidin (DBA), respectively. […] Sections were washed with PBS, and incubated with secondary antibody. Specific labeling was detected with a biotin-conjugated goat anti-rabbit IgG and avidin-biotin peroxidase complex (DBA) and counterstained with nuclear fast red. To verify the binding specificity for nitrotyrosine, iNOS, COX-2, Bax, and Bcl-2, some sections were also incubated with only the primary antibody (no secondary) or with only the secondary antibody (no primary). […] Immunocytochemistry photographs (n=5) were assessed by densitometry as previously described (Shea 1994) by using Imaging Densitometer (AxioVision, Zeiss, Milan, Italy) and a computer program. Myeloperoxidase (MPO) activity, an indicator of PMN accumulation, was determined as previously described (Mullane 1985) 24 h after SCI. […] The rate of change in absorbance was measured spectrophotometrically at 650 nm. MPO activity was defined as the quantity of enzyme degrading 1 μmol of peroxide per minute at 37° C. and was expressed in milliunits/g of wet tissue.

[1] = tested on: Sprague-Dawley adult male rats; assay: Traumatic brain injury (lateral fluid percussion): ICP, CPP and pbtO2 monitoring; type: in vivo, rat
Method: Sprague-Dawley adult male rats were divided into 4 groups: vehicle, E2-SO4 (1 mg/kg), sham+vehicle and sham+E2-SO4; n=5/group. The TBI model was lateral fluid percussion injury (LFP), induced via a hydraulic pressure pulse to the anesthetized rat's exposed brain. This was introduced through a burr hole in the lateral skull prepared one day prior to LFP. A single iv dose of E2-SO4 or saline vehicle was administered 1 hr after LFP. Physiological parameters were measured 24 hr post-injury.
In a second experiment, the efficacy of E2-SO4 treatment for TBI in a lateral fluid percussion (LFP) model was examined. This involved 6 groups of rats (n=5/group). All rats received a craniectomy. Groups 1, 2, 4 and 5 received LFP injury. Groups 1 and 4 were treated with E2 (1 mg/kg) 1 hr post-injury, groups 2 and 5 were vehicle (Veh)-treated and groups 3 and 6 were sham. Groups 1-3 underwent intracranial pressure (ICP), cerebral perfusion pressure (CPP) and partial oxygen pressure (pbtO2) monitoring. Groups 4-6 underwent fludoexoyglucose (FDG)-PET/CT and diffusion tensor imaging (DTI) analysis on days 1 and 7 post-induction. Relative standard uptake values (SUV) of upper half of brain to central value, fractional anisotropy (FA) and apparent diffusion coefficient (ADC) maps were calculated.
FIG. 48B is a plot of cerebral perfusion pressure, which is a derivative of mean arterial pressure less ICP. […] The X axis is shown for an extended 2 hours to confirm stability for the various probes used.
The clinical manifestation of edema after TBI can be seen as increased intracranial pressure, with lower brain perfusion pressure and reduced oxygen tension. […] FIG. 44 compares treatments for TBI with hormones, measured over a 120 min period to control the effects of the invasive probe on pressures. The treatments are progesterone (T+progesterone: magenta), progesterone plus E2-SO4 (T+E+P: brown), E2-SO4 (T+E2SO4: red) and EE-3-SO4 (T+EE-3SO4: yellow).

C[C@]12CC[C@@H]3c4ccc(O)cc4CC[C@H]3[C@@H]1CC[C@@H]2O [17β-estradiol]
MPO activity in spinal cord (myeloperoxidase (MPO)): significantly attenuated; also recorded: significantly reduced the SCI-induced increase in MPO activity
staining for MPO (myeloperoxidase (MPO)): visibly and significantly reduced
oxygen delivery to the injured brain ([1]; FIG. 48, E2 treatment administered 24 hours after TBI): enhances oxygen delivery to the injured brain
CPP (cerebral perfusion pressure) ([1]; TBI (LFP), 1 mg/kg 1 hr post-injury, Veh 65.2±1.4, sham 82.1±1.3): 75.7±1.4 mmHg
pbtO2 (brain tissue oxygen partial pressure) ([1]; TBI (LFP), 1 mg/kg iv 1 hr after injury, 24 hr post-injury, vehicle 15.8±1.3, sham 39.6): 34.1±1.6 mmHg

C[C@]12CC[C@@H]3c4ccc(O)cc4C[C@@H](CCCCCCCCC[S+]([O-])CCCC(F)(F)C(F)(F)F)[C@H]3[C@@H]1CC[C@@H]2O (stereo partly shown) [ICI 182,780]
MPO activity in spinal cord (myeloperoxidase (MPO)): significantly blocked the effect of the 17β-estradiol
staining for MPO (myeloperoxidase (MPO)): significantly blocked the effect of the 17β-estradiol
